{
  "source": "patent US20130216590A1",
  "about": "“TOPICAL ANTIVIRAL FORMULATIONS FOR PREVENTION OF TRANSMISSION OF HSV-2” (priority 2010, published 2013)",
  "key": {"HSV-2 (G) [1]": {"tested_on": "HSV-2 (G)", "experiment": "Co-infection of TZM-bl cells with HIV-1 and HSV-2: HSV-2-induced cytopathicity", "type": "cell-based", "conditions": "TZM-bl cultures co-infected with HIV-1(NL4.3) and HSV-2(G)", "description": "The TZM-bl cell line is derived from HeLa cells and expresses high levels of CD4, CCR5 and CXCR4. In addition, this cell line is stably transduced with a LTR-driven firefly luciferase and E. coli-galactosidase gene (15). In a 96-well tray, 10,000 TZM-bl cells were seeded on day 1. […] Next, 100 μl of a virus suspension containing either HIV-1 (NL4.3), HSV-2 (G) or both viruses together was administered. Two to three days post infection, HIV-1 infection was monitored based on the determination of luciferase activity. For this means, 100 μl of culture supernatant was removed and 100 μl of Bright-Glo Luciferase Assay Substrate (Promega, Madison, USA) was added. The luminescence signal was measured using the Safire 2 microtiter plate reader (Tecan, Männedorf, Switzerland). A control condition containing only mock-infected cells was also included to measure the background luminescence levels. Three days post infection, HSV-2-induced cytopathicity was recorded microscopically based on giant cell formation."}, "HSV-1 strain F (HSV-1F)": {"tested_on": "HSV-1 strain F (HSV-1F)", "experiment": "Human ex vivo tonsillar tissue, HSV DNA release by real-time PCR", "type": "cell-based", "conditions": "Human alphaherpesvirus 1, read-out: EC50, suppression of replication"}, "[2]": {"tested_on": "organotypic raft cultures of keratinocytes", "experiment": "Toxic effects in organotypic epithelial raft cultures", "type": "cell-based", "conditions": "highest concentration, 200 μg/ml", "description": "(§1) For the preparation of epidermal equivalents, a collagen matrix solution was made with collagen mixed on ice with 10-fold concentrated HAM's F12 media, 10-fold reconstitution buffer and Swiss 3T3 J2 fibroblasts. One milliliter of the collagen matrix solution was poured into the wells of 24-well microtiter plates. After gel equilibration with 1 ml of growth medium overnight at 37° C., 2.5×10^5 PHK cells were seeded on the top of the gels and maintained submerged for 24-48 hours. The collagen rafts were raised and placed onto stainless-steel grids at the interface between air and liquid culture medium. The growth medium was a mixture of ⅓ HAM F12 and ⅔ Dulbecco's modified Eagle's medium, with the same supplements as used for the Keratinocyte-SFM. Epithelial cells were allowed to stratify, the medium being replaced every 2-3 days. For the evaluation of the antiviral effects of the compounds in the raft system, two series of rafts were run in parallel, one for histological examination and the other one for quantification of viral production by a plaque reduction assay. Rafts were infected with 5,000 PFU of HSV-1 (KOS) or […] strains after 10 days post-lifting and then the medium was replaced by medium containing different dilutions of the compounds. The growth medium containing the different concentrations of the compounds was changed two days later and 3 days later (after 15 days of differentiation), one series of rafts was fixed in 10% buffered formalin, embedded in paraffin and stained with hematoxylin and eosin for histological evaluation. Another series of rafts was used to quantify virus production. For that purpose, each raft was frozen in 3 ml phosphate buffer saline (PBS) and thawed to release the virus from the infected epithelium. Supernatants were clarified by centrifugation at 1,800 rpm and titrated by a plaque assay in HEL cell cultures. Virus production in each raft was then calculated. Two rafts were used for each drug concentration to determine the effects of the compounds on virus yield."}, "HSV-2G": {"tested_on": "HSV-2G", "experiment": "Human ex vivo tonsillar tissue coinfected with HSV-2G and HIV-1: HSV-2G DNA release", "type": "cell-based", "conditions": "66 μg/ml, coinfected with HIV-1", "description": "(§2) For each experimental condition 16 tissue blocks were immersed in 500 μl of a HSV-2 (strain G) suspension for 2 hours at 37° C., washed three times with PBS and then placed on the gelfoam rafts. Tenofovir was added during the infection and replenished at each culture medium change. Herpes simplex viral replication was evaluated by the release of viral DNA into the culture medium as measured by quantitative real-time PCR (17). HIV-1 replication was evaluated by the release of p24 capsid antigen using a bead-based assay (18)."}, "HSV-2 (G) [3]": {"tested_on": "HSV-2 (G)", "experiment": "Organotypic epithelial raft cultures infected with HSV-2", "type": "cell-based", "description": "as §1"}, "[4]": {"tested_on": "HSV-2 wt clinical isolates", "experiment": "HSV CPE reduction assay, clinical isolates in HEL fibroblast cell cultures", "type": "cell-based", "conditions": "Human alphaherpesvirus 2, Fibroblast"}, "HSV-1 (Kos strain)": {"tested_on": "HSV-1 (Kos strain)", "experiment": "In vivo antiviral activity in HSV-1-infected NMRI athymic nude mice", "conditions": "1% topical, 5 days", "description": "(§3) Adult NMRI athymic nude mice (weighing ˜20 g) were scarified on the lumbosacral area over a surface of about 1 cm^2. Mice were inoculated with 5×10^3 PFU of HSV-1 (Kos strain) or 5×10^2 of HSV-2 (G strain) in 50 μL per mouse. […] In each experiment, a group of animals treated with a placebo formulation that was the same as the test formulation without drug was included as a negative control. […] The day of virus inoculation was always considered as day 0. All animal procedures were approved by the K.U. Leuven Animal Care Committee. Development of lesions and mortality were recorded over a one month period. Animals were euthanized when more than 30% loss in body weight or development of paralysis occurred. Survival rates were estimated according to the Kaplan-Meir method and were compared using the log-rank test (Mantel-Cox) test (GraphPad Prism)."}, "HIV-1": {"tested_on": "HIV-1", "conditions": "cited from earlier work"}, "[5]": {"tested_on": "thymidine kinase-deficient HSV-2 clinical isolates", "experiment": "microbe, parasite or virus in culture", "type": "cell-based", "conditions": "Human alphaherpesvirus 2, Fibroblast"}, "HSV-1 and HSV-2": {"tested_on": "HSV-1 and HSV-2", "experiment": "HSV cytopathic effect (CPE) reduction assay, laboratory strains, HEL cell monolayers and PHKs", "type": "cell-based, herpes simplex virus", "conditions": "HEL, read-out: EC50, inhibition of virus-induced cytopathicity"}, "HSV-2 strain G (HSV-2G)": {"tested_on": "HSV-2 strain G (HSV-2G)", "experiment": "Human ex vivo tonsillar tissue, HSV DNA release by real-time PCR", "type": "cell-based", "description": "as §2"}, "[6]": {"tested_on": "HSV-1 wt clinical isolates", "experiment": "HSV CPE reduction assay, clinical isolates in HEL fibroblast cell cultures", "type": "cell-based", "conditions": "Human alphaherpesvirus 1, Fibroblast"}, "HSV-2 (strain G)": {"tested_on": "HSV-2 (strain G)", "experiment": "Human ex vivo cervico-vaginal tissue, HSV-2 DNA release", "type": "cell-based", "conditions": "166 μg/ml", "description": "as §2"}, "HSV-2 (G strain)": {"tested_on": "HSV-2 (G strain)", "experiment": "In vivo antiviral activity in HSV-2-infected NMRI athymic nude mice", "description": "as §3"}},
  "note": "Where two headings read alike, the source gives them in different places.",
  "data": [
    {"smiles": "C[C@H](Cn1cnc2c(N)ncnc21)OCP(=O)(O)O", "note": "[tenofovir, (R)-9-(2-phosphonylmethoxypropyl)adenine]", "values": [
      {"measurement": "drug concentration that prevented HSV-2 infection", "setting": "HSV-2 (G) [1]", "value": "~60", "unit": "µg/mL"},
      {"measurement": "EC50", "setting": "HSV-1 strain F (HSV-1F)", "value": 7, "unit": "µg/mL"},
      {"measurement": "toxic effects (increase in number of dead cells or alteration of differentiation)", "setting": "[2]", "value": "No toxic effects"},
      {"measurement": "HSV-2G DNA release into culture medium", "setting": "HSV-2G; IQR 4.3-5.7, untreated 7.3", "value": 5, "unit": "log10 copies/ml"},
      {"measurement": "suppression of HSV-2G replication", "setting": "HSV-2G; n=6", "value": "96±1", "unit": "%"},
      {"measurement": "protection of the epithelium against HSV-2-induced cytopathicity (morphological analysis)", "setting": "HSV-2 (G) [3]; 2 μg/ml", "value": "inactive"},
      {"measurement": "protection of the epithelium against HSV-2-induced cytopathicity (morphological analysis)", "setting": "HSV-2 (G) [3]; 20 μg/ml and 5 μg/ml", "value": "partially protective"},
      {"measurement": "protection of the epithelium against HSV-2-induced cytopathicity (morphological analysis)", "setting": "HSV-2 (G) [3]; 200 μg/ml and 50 μg/ml", "value": "protected the entire epithelium"},
      {"measurement": "reduction in virus production", "setting": "HSV-2 (G) [3]; HSV-2, 20 μg/ml", "value": 0.9, "unit": "log"},
      {"measurement": "reduction in virus yield", "setting": "HSV-2 (G) [3]; HSV-2, 50 μg/ml", "value": 1.75, "unit": "logs"},
      {"measurement": "log reduction in virus production (PFU) per raft", "setting": "HSV-2 (G) [3]; HSV-2, 200 μg/ml", "value": 5.4, "unit": "log"},
      {"measurement": "reduction of virus replication in the rafts", "setting": "HSV-2 (G) [3]; lower concentrations (below 20 μg/ml)", "value": "unable to reduce virus replication"},
      {"measurement": "EC50", "setting": "[4]; read-out: mean EC50", "value": "≥ 157", "unit": "µg/mL"},
      {"measurement": "EC50", "setting": "[4]; read-out: range of EC50", "value": "≥ 125", "unit": "µg/mL"},
      {"measurement": "morbidity and survival curves compared to the placebo-treated group", "setting": "HSV-1 (Kos strain)", "value": "significantly delayed"},
      {"measurement": "reduction of HIV-1 transmission", "setting": "HIV-1; 1% gel, women with high adherence", "value": 54, "unit": "%"},
      {"measurement": "overall decrease in the frequency of the sexual transmission of HIV-1", "setting": "HIV-1; formulated as a 1% gel, approximately 900 African women", "value": 39, "unit": "%"},
      {"measurement": "EC50", "setting": "[5]; read-out: mean EC50", "value": 152, "unit": "µg/mL"},
      {"measurement": "EC50", "setting": "[5]; read-out: range of EC50", "value": "131 to 179", "unit": "µg/mL"},
      {"measurement": "EC50", "setting": "HSV-1 and HSV-2", "value": "100 to 200", "unit": "µg/mL"},
      {"measurement": "reduction of replication compared to infected donor matched-untreated tissue", "setting": "HSV-2 strain G (HSV-2G); 66 μg/ml, HSV-2G", "value": "94±7", "unit": "%"},
      {"measurement": "release of viral DNA in culture medium", "setting": "HSV-2 strain G (HSV-2G); 66 μg/ml, day 9 post infection, IQR 3.6-6.1, untreated 7.6", "value": 5.2, "unit": "log10 DNA copies/ml"},
      {"measurement": "EC50", "setting": "HSV-2 strain G (HSV-2G); Human alphaherpesvirus 2, read-out: EC50, suppression of replication", "value": 14, "unit": "µg/mL"},
      {"measurement": "EC50", "setting": "[6]; read-out: mean EC50", "value": 130, "unit": "µg/mL"},
      {"measurement": "EC50", "setting": "[6]; read-out: range of EC50", "value": "114 to 160", "unit": "µg/mL"},
      {"measurement": "viral production (cumulative viral DNA release)", "setting": "HSV-2 (strain G); 12 days of culture, IQR 4.8-5.7, untreated 6.6", "value": 5.5, "unit": "log10 copies/mL"},
      {"measurement": "reduction of viral replication (averaged over experiments)", "setting": "HSV-2 (strain G); n=5", "value": "78±9", "unit": "%"},
      {"measurement": "survival curves and morbidity curves versus the placebo group", "setting": "HSV-2 (G strain); DMSO formulation, starting the day of infection", "value": "statistically significant difference"},
      {"measurement": "appearance of lesions and subsequent death", "setting": "HSV-2 (G strain); formulated in the gel at 1%", "value": "delayed the appearance of herpes virus-related lesions and subsequent death"}
    ]}
  ]
}
